# Laboratory results: patent publication US20190070174A1, “METHODS OF TREATING NEURODEGENERATIVE DISEASES” (priority 2016, published 2019)
# Key:
# [1] = test system: human ATXN3; test: Subchronic treatment of Q84 mice, immunoblot of soluble lysates; type: in vivo; conditions: 15 mg/kg IP daily for 10 days
# Protocol: (§1) YACMJD84.2 transgenic mice were housed in cages with a maximum number of five animals and maintained in a standard 12-hour light/dark cycle with food and water ad libitum. Genotyping was performed using DNA isolated from tail biopsy at the time of weaning, and genotypes of all studied mice were confirmed using DNA extracted from tails collected post-mortem. […] Five hours after the final injection, mice were anesthetized with ketamine/xylazine and perfused transcardially with phosphate buffered saline (PBS) (for RNA and protein studies), and brains were immediately placed on dry ice and stored at −80° C.
# (§2) Protein lysates from cell cultures, mouse brain slices or mouse brains were obtained by lysis in RIPA buffer containing protease inhibitors (Complete, Roche Diagnostics), followed by sonication and centrifugation. The supernatants (soluble protein fractions) were collected, total protein concentration was determined using the BCA method (Pierce) and then stored at −80° C. […] Pellets corresponding to insoluble protein fractions were resuspended in 100 μL of Laemmli buffer 2× and boiled for 10 min. Insoluble proteins were then quantified, and 100 μg were loaded in a filter trap assay apparatus and transferred to a nitrocellulose membrane (0.45 μm pore) that was incubated overnight with rabbit anti-MJD antibody (1:5000) at 4° C. Bound primary antibodies were visualized by incubation with a peroxidase-conjugated anti-mouse or anti-rabbit secondary antibody (1:10000; Jackson Immuno Research Laboratories) followed by treatment with the ECL-plus reagent (Western Lighting, PerkinElmer) and exposure to autoradiography films. Band intensity was quantified by densitometry using ImageJ.
# (§3) Five hours after the final injection on day 10, mice were sacrificed and brains collected for total protein and RNA extraction from different regions: brainstem, cerebellum, cervical spinal cord, and forebrain.
# [2] = test system: endogenous mouse Atxn3; test: as above; type: in vivo; conditions: 15 mg/kg IP daily for 10 days
# Protocol: as §1, §2, §3
# [3] = test system: high molecular weight (HMW) ATXN3 species; test: ATXN3 immunoblotting of protein lysates from fly heads; type: in vivo, Drosophila
# [4] = test system: insoluble ATXN3; test: Subchronic treatment of Q84 mice, filter trap analysis of insoluble fractions; type: in vivo, human; conditions: brainstem insoluble fractions
# Protocol: as §1
# as §2, with “Bound primary antibodies were visualized by incubation with a peroxidase-conjugated anti-mouse or anti-rabbit secondary antibody (1:10000; Jackson Immuno Research Laboratories) followed by treatment with the ECL-plus reagent (Western Lighting, PerkinElmer) and exposure to autoradiography films.” left out
# [5] = Pharmacokinetics after intraperitoneal injection; type: in vivo, mouse; conditions: 15 mg/kg IP, mice
# [6] = test system: Hsp70; test: Subchronic treatment of Q84 mice, Western blot of brainstem soluble fractions; type: in vivo, mouse
# Protocol: as §1, §2
# [7] = test system: Hsp40; test: as above; type: in vivo, mouse
# Protocol: as §1, §2
# [8] = test system: Rad23b; test: as above; type: in vivo, mouse; conditions: Q84 mice vs vehicle
# Protocol: as §1, §2
# [9] = test system: Hsf1; test: as above; type: in vivo, mouse
# Protocol: as §1, §2
# [10] = test system: Rad23a; test: as above; type: in vivo, mouse; conditions: Q84 mice vs vehicle
# Protocol: as §1, §2
# [11] = test system: Hsp90β; test: as above; type: in vivo, mouse
# Protocol: as §1, §2
# [12] = test system: Hsp90a; test: as above; type: in vivo, mouse
# Protocol: as §1, §2
# [13] = test system: ATXN3; test: Subchronic treatment of Q84 mice, anti-ATXN3 immunofluorescence of ventral pons; type: in vivo, human
# Protocol: as §1
# Brains from mice perfused with 4% PFA were post-fixed overnight at 4° C. in the same fixative, immersed in 30% sucrose/PBS, and sectioned on a sledge microtome (SM200R Leica Biosystems). […] Neuronal nuclear ATXN3 was quantified using ImageJ by quantifying ATXN3 fluorescence in DAPI and NeuN double-positive nuclei. Corrected total cell fluorescence (CTCF) was obtained by measuring ATXN3 fluorescence in 15 nuclei/image field/mouse and normalizing for nuclei area using the equation CTCF=fluorescence intensity−(nucleus area×mean fluorescence of background readings). ATXN3 positive puncta were quantified using ImageJ by assessing particle fluorescence (applying the triangle threshold) in the same image fields described above.
# [14] = test system: MJD/SCA3 flies; test: Survival of MJD/SCA3 flies; type: in vivo, Drosophila; conditions: 50 μM in food from eclosion
# Protocol: Drosophila stocks were reared on standard cornmeal media at 25° C. in diurnal environments with ˜60% humidity. […] Full-length human ATXN3 cDNA with 77 CAG was cloned into pWalium10-moe (Perrimon Lab, Harvard Medical School). Flies that carry ATXN3 in site attP2 or the empty vector control into the same site as the most isogenic control line were generated. Injections were done into y[1], w[*]; +; attP2 (landing site). […] Adult flies of the following genotypes, w[*]; sqh-Gal4/+; UAS-ataxin-3Q77/+ or w[*], sqh-Gal4/+; Empty-Vector-Control/+ were switched from standard media to instant media as soon as they eclosed from their pupal case (day 0), and thereafter maintained on instant media with vehicle compound. Media was switched every three days, and death was noted daily.
# At least 200 flies in groups of 9 to 17 flies per treatment vial were monitored.
compound,measurement,setting,value
O=C1CCc2ccc(OCCCCN3CCN(c4cccc(Cl)c4Cl)CC3)cc2N1 [aripiprazole],"HMW ATXN3 species, of levels in vehicle-treated mice","[1]; brainstem, Q84 mice",44%
same,levels of monomeric human ATXN3,[1]; soluble lysates,trend toward decreased levels
same,levels of endogenous mouse Atxn3,[2],trend toward decreased levels
same,"HMW ATXN3 species, of levels in vehicle-treated flies","[3]; day 12, 50 μM",0.73
same,"HMW ATXN3 species, of levels in vehicle-treated flies","[3]; day 15, 50 μM",0.41
same,"HMW ATXN3 species, of levels in vehicle-treated flies","[3]; day 19, 50 μM",0.53
same,insoluble ATXN3 vs vehicle,[4],no differences
same,time of maximal concentration in the brain post-injection,[5],30 min
same,levels of Hsp70 compared with vehicle-treated mice,[6],62%
same,levels of Hsp40,[7],No differences
same,levels of Rad23b,[8],trend toward decreased levels
same,Heat shock transcription factor (Hsf1) level,[9],increased
same,levels of Rad23a,[10],trend toward decreased levels
same,levels of Hsp90β compared with vehicle-treated mice,[11],22%
same,levels of Hsp90a compared with vehicle-treated mice,[12],79%
same,ATXN3 nuclear levels vs vehicle,[13]; neuronal nuclei of ventral pons,no differences
same,total ATXN3 fluorescence vs control mice,[13]; pons,non-significant trend towards a decrease
same,increased mean survival compared with vehicle-treated flies,[14],1.3 days
same,mean survival,[14]; vehicle-treated 7.7±0.343,9.0 ± 0.367 days
